The results in this text go back to patent US20260125417A1, “GLUCOCORTICOID RECEPTOR AGONISTS” (ELI LILLY AND COMPANY, priority 2022, published 2026).

This assay addresses T1, GR-LBD (Homo sapiens, UniProt P04150).
T1 construct: purchased Life Technologies A15899
T1 sequence (P04150 524-758 limits assumed): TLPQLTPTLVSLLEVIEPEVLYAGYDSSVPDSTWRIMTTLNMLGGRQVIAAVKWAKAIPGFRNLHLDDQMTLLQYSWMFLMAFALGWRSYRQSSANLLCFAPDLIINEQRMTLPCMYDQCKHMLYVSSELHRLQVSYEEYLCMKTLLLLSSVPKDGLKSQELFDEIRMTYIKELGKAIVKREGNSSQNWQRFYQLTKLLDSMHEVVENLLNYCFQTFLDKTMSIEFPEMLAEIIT
Nature of the assay: hGR CoActivator Recruitment Assay (LanthaScreen TR-Fret GR Coactivator Assay). The class given is biochemical. Conditions: Fluorescein-SRC1-4 recruitment to GR-LBD, 10-point dilution, top concentration 200 nM, positive control 4 μM dexamethasone. On the procedure: Example 4. hGR CoActivator Recruitment Assay The activity of glucocorticoid compounds was measured using the LanthaScreen TR-Fret GR Coactivator Assay from Life Technologies (A15899). The compounds were acoustically transferred to an assay plate in a 3-fold 10-point serial dilution with atop concentration of 200 nM. Ten microliters of a 2× solution of GR-LBD was added to the compound plate and incubated for 10 min. Then ten microliters of a 2× solution of Fluoresein-SRC1-4 and Tb labelled anti-GST antibody were added to the plate. The plate was incubated in the dark for two hours and then read on an Envision plate reader, with excitation at 340 nm and emission at 520 nm (Fluorescein) and 490 nm (Terbium). The emission ratio of 520/490 was analyzed in Genedata. To obtain percent activity, the data was compared to a negative control of DMSO and positive control of 4 μM dexamethasone.

The compound `[2H]C([2H])([2H])Oc1ccc(OCc2cccc(N)c2)c(F)c1[C@H]1O[C@@H]2C[C@H]3[C@@H]4CCC5=CC(=O)C=C[C@]5(C)[C@H]4[C@@H](O)C[C@]3(C)[C@]2(C(=O)CO)O1` [Compound No. 1] came in with an EC50 of 1.93 nM.
The value for `COc1ccc(CCc2ccc(N)cc2)c(F)c1[C@H]1O[C@@H]2C[C@H]3[C@@H]4CCC5=CC(=O)C=C[C@]5(C)[C@H]4[C@@H](O)C[C@]3(C)[C@]2(C(=O)CO)O1` [compound 3, (6aR,6bS,7S,8aS,8bS,10S,11aR,12aS,12bS)-10-(3-(4-aminophenethyl)-2-fluoro-6-methoxyphenyl)-7-hydroxy-8b-(2-hydroxyacetyl)-6a,8a-dimethyl-1,2,6a,6b,7,8,8a,8b,11a,12,12a,12b-dodecahydro-4H-naphtho[2′,1′:4,5]indeno[1,2-d][1,3]dioxol-4-one] was 1.65 nM; that for `CCc1ccc(OCc2cccc(N)c2)c(F)c1[C@H]1O[C@@H]2C[C@H]3[C@@H]4CCC5=CC(=O)C=C[C@]5(C)[C@H]4[C@@H](O)C[C@]3(C)[C@]2(C(=O)CO)O1` [compound 2, (6aR,6bS,7S,8aS,8bS,10S,11aR,12aS,12bS)-10-(3-((3-aminobenzyl)oxy)-6-ethyl-2-fluorophenyl)-7-hydroxy-8b-(2-hydroxyacetyl)-6a,8a-dimethyl-1,2,6a,6b,7,8,8a,8b,11a,12,12a,12b-dodecahydro-4H-naphtho[2′,1′:4,5]indeno[1,2-d][1,3]dioxol-4-one] was 1.52 nM; that for `COc1ccc(OCCc2cccc(N)c2)c(F)c1[C@H]1O[C@@H]2C[C@H]3[C@@H]4CCC5=CC(=O)C=C[C@]5(C)[C@H]4[C@@H](O)C[C@]3(C)[C@]2(C(=O)CO)O1` [compound 5, (6aR,6bS,7S,8aS,8bS,10S,11aR,12aS,12bS)-10-(3-(3-aminophenethoxy)-2-fluoro-6-methoxyphenyl)-7-hydroxy-8b-(2-hydroxyacetyl)-6a,8a-dimethyl-1,2,6a,6b,7,8,8a,8b,11a,12,12a,12b-dodecahydro-4H-naphtho[2′,1′:4,5]indeno[1,2-d][1,3]dioxol-4-one] was 2.25 nM.
The value for `COc1ccc(OCCc2ccc(N)cc2)c(F)c1[C@H]1O[C@@H]2C[C@H]3[C@@H]4CCC5=CC(=O)C=C[C@]5(C)[C@H]4[C@@H](O)C[C@]3(C)[C@]2(C(=O)CO)O1` [compound 4, (6aR,6bS,7S,8aS,8bS,10S,11aR,12aS,12bS)-10-(3-(4-aminophenethoxy)-2-fluoro-6-methoxyphenyl)-7-hydroxy-8b-(2-hydroxyacetyl)-6a,8a-dimethyl-1,2,6a,6b,7,8,8a,8b,11a,12,12a,12b-dodecahydro-4H-naphtho[2′,1′:4,5]indeno[1,2-d][1,3]dioxol-4-one] was 1.48 nM.
